Measured values taken from patent EP4759805A1, “NLRP3 INFLAMMASOME INHIBITOR AND USE THEREOF” (NEUROCRINE BIOSCIENCES, INC., priority 2023, dated 2025).

Target: T1, NLRP3 inflammasome (Homo sapiens, UniProt Q96P20)
T1 construct: endogenous in cells; host or cells: THP-1 cells (PMA-differentiated, LPS-primed, nigericin-stimulated)
Assay: Cell assay of inhibitory activity against NLRP3 inflammasome in THP-1 cells (LPS/nigericin stimulation, caspase-1 glo readout)
Format: cell-based
Settings: PMA-differentiated THP-1 cells; LPS 500 ng/ml 3 h, compound 1 h, nigericin 10 µg/ml 30 min; active caspase-1 in supernatant
Method: Experimental Example 1: Cell assay of inhibitory activity of the compounds of the present disclosure against NLRP3 inflammasome
Test compounds: the compounds of the present disclosure prepared in accordance with the methods described in the Examples
THP-1 was an immortalized human macrophage cell line.
Test instrument: Microplate reader (manufactured by PE)
• 1. THP-1 cells were cultured in 1640 complete medium (500 ml 1640+56 ml FBS+560 µl 1000× P/S+2 µl mercaptoethanol), and used within 3 to 20 passages. • 2. Coating of culture plates: 100 µl of polylysine solution was added into a 96-well cell culture plate and incubated at 37°C for 30min. The solution was discarded, and the plate was washed twice with PBS for later use. • 3. Induction of differentiation of THP-1: THP-1 cells were resuspended in an appropriate amount of complete medium containing 10 ng/ml PMA to achieve a cell density of 5×10^5 cells /ml in the suspension. The cell suspension was added into a 96-well plate with 100 µl of cell suspension per well, and the 96-well plate was cultured overnight for 16 hours in a 37°C CO2 cell incubator. • 4. Stimulation of THP-1: • a. Serum-free THP-1 culture medium containing LPS was added to achieve a final concentration of 500 ng/ml, and the resultant was cultured in a 37°C CO2 cell incubator for 3h; • b. The compounds to be tested were prepared into stock solutions at gradient concentrations with DMSO. The resulting solutions were added to the cells, evenly mixed, and finally diluted at 1:1000. The 96-well plate was cultured in a 37°C CO2 cell incubator for 1h. • c. Nigericin was added to each well to achieve a final concentration of 10 µg/ml, and the resultant was cultured in a 37°C CO2 cell incubator for 30 min. • d. The resulting culture medium in each well was transferred to a new culture plate, which was then centrifuged at 3000 rpm for 5min. Afterwards, the supernatant was transferred to a new 96-well plate. • e. The collected supernatant samples of the cell culture medium were determined by using a commercial caspase-1 glo kit, and the content of human active caspase-1 was determined according to the manufacturer's instructions.

T1 sequence (Q96P20 whole entry): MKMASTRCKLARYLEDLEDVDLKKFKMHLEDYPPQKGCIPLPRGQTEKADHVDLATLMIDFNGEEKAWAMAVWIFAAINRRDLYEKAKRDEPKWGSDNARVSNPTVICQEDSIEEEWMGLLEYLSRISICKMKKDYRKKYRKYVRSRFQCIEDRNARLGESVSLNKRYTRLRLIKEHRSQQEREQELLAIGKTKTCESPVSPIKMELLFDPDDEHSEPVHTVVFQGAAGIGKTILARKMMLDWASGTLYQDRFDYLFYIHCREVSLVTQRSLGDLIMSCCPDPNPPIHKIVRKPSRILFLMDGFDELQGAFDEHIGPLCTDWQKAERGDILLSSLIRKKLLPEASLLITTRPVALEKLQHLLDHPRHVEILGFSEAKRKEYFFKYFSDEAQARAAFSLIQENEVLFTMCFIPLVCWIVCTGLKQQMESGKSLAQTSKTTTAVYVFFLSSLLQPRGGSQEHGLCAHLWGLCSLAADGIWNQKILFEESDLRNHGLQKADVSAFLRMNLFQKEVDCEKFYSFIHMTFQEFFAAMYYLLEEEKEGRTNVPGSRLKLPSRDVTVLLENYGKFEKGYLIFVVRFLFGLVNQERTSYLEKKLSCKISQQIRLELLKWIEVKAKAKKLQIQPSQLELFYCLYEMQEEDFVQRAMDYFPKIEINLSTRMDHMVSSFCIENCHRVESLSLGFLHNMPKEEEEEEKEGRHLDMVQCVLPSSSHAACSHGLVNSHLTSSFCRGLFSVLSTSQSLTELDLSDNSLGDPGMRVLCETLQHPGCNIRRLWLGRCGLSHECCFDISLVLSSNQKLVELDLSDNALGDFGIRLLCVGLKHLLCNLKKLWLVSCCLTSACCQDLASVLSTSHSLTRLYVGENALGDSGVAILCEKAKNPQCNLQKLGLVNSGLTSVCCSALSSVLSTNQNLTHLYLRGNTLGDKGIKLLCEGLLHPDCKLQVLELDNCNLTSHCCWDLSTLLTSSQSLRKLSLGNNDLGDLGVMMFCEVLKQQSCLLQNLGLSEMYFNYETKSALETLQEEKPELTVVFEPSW

C#Cc1ccc(-c2nnc(NC(=O)CNC3CC(O)C3)cc2C2CC2)c(O)c1 (stereo not shown) [Compound 33, N-(5-cyclopropyl-6-(4-ethynyl-2-hydroxyphenyl)pyridazin-3-yl)-2-((3-hydroxycyclobutyl)amino)acetamide]
IC50: 14.5 nM
